This is an account of results in patent US6677373B2, “Polymorphic B form of 3-(cyclopropylmethoxy)-4-[4-(methylsulfonyl)phenyl]-5,5-dimethyl-5H-furan-2-one” (Merial Limited, priority 1999, dated 2004).

Format in all cases: physicochemical
The nature of data set [1]: Solubility in methyltertiobutylether on recrystallization. The following applies: solid at 6.3% weight in methyltertiobutylether. The text has this: Recrystallization of polymorph A for purification purposes leaded to solubility problems in methyltertiobutylether.
The nature of data set [2]: Carr Index (compressibility index, flowability) of unmilled product. The text has this:
After crystallization and before micronization, the Carr Index of B form is lower than 10 (in %). The Carr Index CI is defined as: [formula] where P is the packed bulk density (g cm^−3), L is the loose bulk density (g cm^−3). CI is also know as a compressibility index. A low figure for CI corresponds to a high degree of flowability. The Carr Index way be calculated from Mercury Intrusion Porosimetry or measured by Tap—Tap.

A short description of data set [3]: Thermodynamic stability of the polymorphs, DSC (Differential Scanning Calorimetry). To be noted: for thermodynamic stability: compared with Polymorph A, monotropic system according to Burger's rule. The protocol: an endothermal peak around 90-100° C. due to melting of A form,
an exothermal peak corresponding to the transition A→B,
an endothermal peak around 120° C. due to melting of B form,
a very small exothermal peak corresponding to the transition A→B,
an endothermal peak due to melting of B form.
Therefore, the transition A→B is under kinetic control as usual in case of polymorphism. The transition from A to B may also be followed by X-Ray under heating (FIG. 7).
A general note: DSC measures the heat that a sample takes up or gives off during a temperature scan.

With `CC1(C)OC(=O)C(OCC2CC2)=C1c1ccc(S(C)(=O)=O)cc1` [3-(cyclopropylmethoxy)-4-(4-methylsulfonyl)phenyl-5,5-dimethylfuranone], in data set [1], the solubility in methyltertiobutylether result was “could no longer be solubilised”.

In the case of `CC1(C)OC(=O)C(OCC2CC2)=C1c1ccc(S(C)(=O)=O)cc1` [Polymorph A, 3-(cyclopropylmethoxy)-4-[4-(methylsulfonyl)phenyl]-5,5-dimethyl-5H-furan-2-one], the “Carr Index” value in data set [2] (unmilled product, crystallisation process: Lab scale) was 26 to 27%; in data set [2] (unmilled product, crystallisation process: Pilot scale) it was 29 to 33%. Also, the “behaviour when heated (DSC)” value in data set [3] (depending on the heating rate (40° C./mn, 2° C./mn)) was “transforms to form B”.

For `CC1(C)OC(=O)C(OCC2CC2)=C1c1ccc(S(C)(=O)=O)cc1` [Polymorph B, 3-(cyclopropylmethoxy)-4-[4-(methylsulfonyl)phenyl]-5,5-dimethyl-5H-furan-2-one], the “Carr Index” value in data set [2] (after crystallization and before micronization) was “lower than 10%”; in data set [2] (unmilled product, Recrystallisation in MTBE, Lab scale), 2 to 3%; in data set [2] (unmilled product, Recrystallisation in MTBE, Pilot scale) it was 2 to 4%. Further, the flow characteristics result in data set [2] (compared with Polymorph A) is “better flow characteristics than Polymorph A”. Also, the thermodynamic stability entry in data set [3] is “thermodynamically more stable than Polymorph A”; in data set [3] (listed as B form), “the most stable form”.
